Several values for one entry are separate records, joined by “and”; a condition that tells them apart may be missing. Identical values can stand only once.
Columns and labels:
GV sPLA2 = target: T1, GV sPLA2 (Homo sapiens, UniProt P39877); experiment: In vitro PLA2 mixed micellar assay (modified Dole assay), GV sPLA2; assay type: biochemical; conditions: at 0.091 mole fraction of inhibitor, n = 3
T1 sequence (P39877 21-138): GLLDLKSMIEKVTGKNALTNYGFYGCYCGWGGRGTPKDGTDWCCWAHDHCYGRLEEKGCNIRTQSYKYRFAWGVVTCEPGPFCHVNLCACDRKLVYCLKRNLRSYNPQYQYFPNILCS
Protocol: (§1) All the inhibitors synthesized in this work were tested for inhibition of GIVA cPLA2, GVIA iPLA2 and GV sPLA2 using mixed micellar assays. Details for the assays have been published previously. The results of the inhibition are presented in Table 1 using either percent inhibition or XI(50) values. Initially, the percent inhibition of each PLA2 at 0.091 mole fraction of inhibitor was determined. XI(50) values were estimated when the percent inhibition was higher than 90%. The XI(50) is the mole fraction of the inhibitor in the total substrate interface required to inhibit the enzyme by 50%. Data for the reference 2-oxoamide inhibitors AX006 and AX048 are included in Table 1 for comparison. Phospholipase A2 activity was determined using the previously described modified Dole assay with buffer and substrate conditions optimized for each enzyme as described previously: (i) GIVA cPLA2 substrate mixed-micelles were composed of 400 μM Triton […]-labeled PAPC, and 3 μM PIP2 in buffer containing 100 mM HEPES pH 7.5, 90 μM CaCl2, 2 mM DTT and 0.1 mg/ml BSA; (ii) GVI iPLA2 substrate mixed-micelles were composed of either (a) 400 μM Triton X-100, 99 μM DPPC, and 1.5 μM ^14C-labeled DPPC in buffer containing 200 mM HEPES pH 7.0, 1 mM ATP, 2 mM DTT and 0.1 mg/ml BSA or (b) 400 μM Triton X-100, 98.3 μM PAPC, and 1.7 μM ^14C-labeled PAPC in buffer containing 100 mM HEPES pH 7.5, 2 mM ATP and 4 mM DTT; and (iii) GV sPLA2 substrate mixed-micelles were composed of 400 μM Triton X-100, 99 μM DPPC, and 1.5 μM ^14C-labeled DPPC in buffer containing 50 mM Tris pH 8.0 and 5 mM CaCl2. Initial screening of compounds at 0.091 mole fraction inhibitor in mixed-micelles was carried out. Compounds displaying 25% or less inhibition had no inhibitory affect (designated N.D.). The average percent inhibition (and standard error, n=3) for compounds displaying more than 25% and less than 90% enzyme inhibition is reported herein. If the percent inhibition was greater than 90%, then its XI(50) was determined by plotting percent inhibition vs. inhibitor molar fraction (7 points; typically 0.005 to 0.091 mole fraction). Inhibition curves were modeled in Graphpad Prism using either a linear (x, y intercept=0) or non-linear regression (one-site binding model-hyperbola, BMAX=100) to calculate the reported XI(50) and associated error values.

GIVA cPLA2 = target: T2, GIVA cPLA2 (Homo sapiens, UniProt P47712); experiment: In vitro PLA2 mixed micellar assay (modified Dole assay), GIVA cPLA2; assay type: biochemical; conditions: for GIVA cPLA2 X1(50): mixed micelles, mole fraction of inhibitor in total substrate interface required to inhibit the enzyme by 50%; for GIVA cPLA2 % inhibition: at 0.091 mole fraction of inhibitor, n = 3
T2 sequence (P47712 1-749): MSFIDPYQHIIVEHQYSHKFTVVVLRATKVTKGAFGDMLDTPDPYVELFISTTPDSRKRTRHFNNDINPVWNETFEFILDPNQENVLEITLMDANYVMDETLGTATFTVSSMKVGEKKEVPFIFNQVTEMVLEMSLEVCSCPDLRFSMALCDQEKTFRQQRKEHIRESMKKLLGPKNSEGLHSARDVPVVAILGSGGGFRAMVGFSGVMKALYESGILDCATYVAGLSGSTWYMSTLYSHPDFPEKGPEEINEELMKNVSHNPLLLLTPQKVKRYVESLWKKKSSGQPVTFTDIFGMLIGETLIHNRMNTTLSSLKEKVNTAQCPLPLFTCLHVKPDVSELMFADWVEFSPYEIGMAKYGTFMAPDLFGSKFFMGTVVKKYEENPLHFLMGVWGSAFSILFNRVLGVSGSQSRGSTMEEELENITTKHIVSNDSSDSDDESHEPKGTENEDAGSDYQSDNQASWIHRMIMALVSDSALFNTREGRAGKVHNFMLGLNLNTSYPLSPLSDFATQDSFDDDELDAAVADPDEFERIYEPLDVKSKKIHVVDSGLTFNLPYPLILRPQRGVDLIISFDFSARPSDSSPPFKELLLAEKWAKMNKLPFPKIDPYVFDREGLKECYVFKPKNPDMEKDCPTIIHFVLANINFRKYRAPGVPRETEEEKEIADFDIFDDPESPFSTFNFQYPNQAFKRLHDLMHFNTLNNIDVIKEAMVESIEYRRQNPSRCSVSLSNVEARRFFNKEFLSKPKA
Protocol: as §1

RAW 264.7 macrophages = experiment: Inhibition of Kdo2-Lipid A stimulated arachidonic acid release; assay type: cell-based; conditions: for inhibition at 25 µM: RAW264.7, read-out: AA Release Inhibition (%)
Excerpt: Arachidonic acid (AA) is the ideal metabolic indicator of GIVA cPLA2 activity, since it is the product of GIVA cPLA2-mediated catalysis. In addition to some of the new 2-oxoamides based on dipeptides and pseudodipeptides that were synthesized in this work, a series of potent 2-oxoamide in vitro inhibitors of GIVA cPLA2, previously reported by us, were further tested in a cellular ex vivo system to investigate whether they reduced cellular AA production. For this purpose, RAW 264.7 macrophages were preincubated with 25 μM concentrations of the inhibitor prior to treatment of the cells with Kdo2-Lipid A. Subsequently, AA release was quantitated from the supernatants.
RAW 264.7 macrophages were maintained in a humidified atmosphere at 37° C. with 5% CO2, as described elsewhere.^36 The cells were cultured in DMEM media that was supplemented with 10% fetal bovine serum, 2 mM glutamine, 100 units/mL penicillin, 100 μg/ml streptomycin, and non-essential amino acids. The cells were plated at a confluency of 2×10^6 cells per well in 6 well tissue culture plates and allowed to adhere overnight. Inhibitors were added to the medium 30 min before Kdo2-Lipid A was added and the supernatants were collected at 1 hour following stimulation. Subsequently, AA was extracted from the supernatants and quantitated by HPLC-MS, as described elsewhere.^36, 37 AA release levels were normalized to pmol AA release per million cells though DNA quantitation using the Broad Range DNA Quant-Kit (Invitrogen). IC50 values were determined by estimating the concentration of inhibitor required for half maximal inhibition of the maximum inhibition observed with a given inhibitor.

[1] = Mus musculus, 25 μM inhibitor preincubated, Kdo2-Lipid A stimulation, RAW 264.7 macrophages

| Compound | melting point | GV sPLA2 % inhibition (GV sPLA2) | GIVA cPLA2 X1(50) (GIVA cPLA2) | inhibition at 0.091 mole fraction (GV sPLA2) | GIVA cPLA2 % inhibition (GIVA cPLA2) | also measured |
| --- | --- | --- | --- | --- | --- | --- |
| CCCCCCCCCCCCCCC(=O)C(=O)N[C@@H](CCCC)C(=O)NCC(=O)OC [Compound 4a, (S)-Methyl 2-(2-(2-oxohexadecanamido)hexanamido)acetate] | 65 to 67 °C | 65% | 0.021 ± 0.009 mole fraction |  |  |  |
| CCCCCCCCCCCCCCC(=O)C(=O)N[C@H](C(=O)NCC(=O)OC)C(C)C [Compound 4b, (S)-Methyl-2-(3-methyl-2-(2-oxohexadecanamido)butanamido)-acetate] | 118 to 119 °C |  |  | < 25% | 25% |  |
| CCCCCCCCCCCCCCC(=O)C(=O)N[C@@H](CCCC)C(=O)NCC(=O)OCC [Compound 4c, (S)-Ethyl 2-(2-(2-oxohexadecanamido)hexanamido)acetate] | 63 to 65 °C | 63% |  |  | 73% |  |
| CCCCCCCCCCCCCCC(=O)C(=O)N[C@@H](CCCC)C(=O)NCC(=O)OC(C)(C)C [Compound 8a, (S)-tert-Butyl 2-(2-(2-oxohexadecanamido)hexanamido)acetate] | 38 to 39 °C | 59% |  |  | 72% |  |
| CCCCCCCCCCCCCCC(=O)C(=O)N[C@H](C(=O)NCC(=O)OC(C)(C)C)C(C)C [Compound 8b, (S)-tert-Butyl-2-(3-methyl-2-(2-oxohexadecanamido)butanamido)-acetate] | 58 to 61 °C |  | 0.028 ± 0.015 mole fraction |  |  | AA Release Inhibition (%) (RAW 264.7 macrophages; 25 μM inhibitor preincubated, Kdo2-Lipid A stimulation, RAW 264.7 macrophages): 30 ± 2%; inhibition at 25 µM (RAW 264.7 macrophages; [1]): 30% |
| CCCCCCCCCCCCCCC(=O)C(=O)N[C@@H](CCCC)C(=O)NCC(=O)O [Compound 9a, (S)-2-(2-(2-Oxohexadecanamido)hexanamido)acetic Acid] |  |  | 0.035 ± 0.014 mole fraction | < 25% |  |  |
| CCCCCCCCCCCCCCC(=O)C(=O)N[C@H](C(=O)NCC(=O)O)C(C)C [Compound 9b, (S)-2-(3-Methyl-2-(2-oxohexadecanamido)butanamido)acetic Acid] | 87 to 89 °C |  | 0.061 ± 0.017 mole fraction | < 25% |  |  |
| CCCCCCCCCCCCCCC(=O)C(=O)N[C@@H](CCCC)COCC(=O)OCC [Compound 13, (S)-Ethyl 2-(2-(2-oxohexadecanamido)hexyloxy)acetate] | 41 to 43 °C |  |  |  | 52% |  |
| CCCCCCCCCCCCCCC(=O)C(=O)N[C@@H](CCCC)COCC(=O)OC(C)(C)C [Compound 17, (S)-tert-Butyl 2-(2-(2-oxohexadecanamido)hexyloxy)acetate] |  | 57% |  |  | 44% |  |
| CCCCCCCCCCCCCCC(=O)C(=O)N[C@@H](CCCC)COCC(=O)O [Compound 18, (S)-2-(2-(2-oxohexadecanainido)hexyloxy)acetic Acid] | 64 to 66 °C |  | 0.017 mole fraction and 0.017 ± 0.002 mole fraction | < 25% |  | Effect on AA release (in words) (RAW 264.7 macrophages; 25 μM inhibitor, Kdo2-Lipid A, RAW 264.7 macrophages): significant reduction of AA release; IC50 (RAW 264.7 macrophages; Mus musculus, RAW264.7, RAW 264.7 cells, Kdo2-Lipid A, half maximal of the maximum inhibition observed, read-out: IC50 for the inhibition of arachidonic acid release (text)): 2000 nM; inhibition at 25 µM (RAW 264.7 macrophages; [1]): 68% |
